The target of this assay is T1, Dimer of Gag-Pol polyprotein [489-587] (Human immunodeficiency virus 1, UniProt P12497).
T1 construct: 489-587
The experiment in a line: Protease Inhibition Assay. Particulars: pH 6; 37 °C. As for the experimental part: IC50 values were obtained by assaying the enzyme against the synthetic substrate peptide KQGTVSFNFPQIT, which was tritiated at the proline residue, and then was coupled via its N-terminal lysine to an Affi-gel bead mixture. The assay was performed in 96-well microtiter filtration plates. The plates containing HIV protease and radiolabeled substrate beads were incubated with or without inhibitor. After filtration, radioactivity was measured using an LKB 1205 Microbeta liquid scintillation counter. IC50 determinations were performed in duplicate at each concentration with mean values used for data analysis.
With `C[C@H](Cc1ccccc1)NC(=O)[C@@H]1N[C@@H]([C@H](NC(=O)Cc2ccccc2)C(=O)NCc2ccccc2)SC1(C)C` [(2R,4S)-2-[(R)-(benzylcarbamoyl)(1-phenylacetamido)methyl]-5,5-dimethyl-N-[(2R)-1-phenylpropan-2-yl]-1,3-thiazolidine-4-carboxamide], the IC50 (as a rule, the concentration that inhibits the measured activity by half) is > 180 µM.
The value for `C[C@@H](Cc1ccccc1)NC(=O)[C@@H]1N[C@@H]([C@H](NC(=O)Cc2ccccc2)C(=O)NCc2ccccc2)SC1(C)C` [(2R,4S)-2-[(R)-(benzylcarbamoyl)(1-phenylacetamido)methyl]-5,5-dimethyl-N-[(2S)-1-phenylpropan-2-yl]-1,3-thiazolidine-4-carboxamide] was > 180 µM.
The value for `CCC(C)C(CO)NC(=O)[C@@H]1N[C@@H]([C@H](NC(=O)Cc2ccccc2)C(=O)NCc2ccccc2)SC1(C)C` (stereo partly drawn) [(2R,4S)-2-[(R)-(benzylcarbamoyl)(1-phenylacetamido)methyl]-N-(1-hydroxy-3-methylpentan-2-yl)-5,5-dimethyl-1,3-thiazolidine-4-carboxamide] was > 0.54 µM.
The value for `CC1(C)S[C@H]([C@H](NC(=O)Cc2ccccc2)C(=O)NCc2ccccc2)N[C@H]1C(=O)NCCNC(=O)[C@@H]1N[C@@H]([C@H](NC(=O)Cc2ccccc2)C(=O)NCc2ccccc2)SC1(C)C` [(2R,4S)-2-[(R)-(benzylcarbamoyl)(1-phenylacetamido)methyl]-N-(2-{[(2R,4S)-2-[(R)-(benzylcarbamoyl)(1-phenylacetamido)methyl]-5,5-dimethyl-1,3-thiazolidin-4-yl]formamido}ethyl)-5,5-dimethyl-1,3-thiazolidine-4-carboxamide] was 0.0009 µM; that for `CC(C)[C@H](CO)NC(=O)[C@@H]1N[C@@H]([C@H](NC(=O)Cc2ccccc2)C(=O)NCc2ccccc2)SC1(C)C` [(2R,4S)-2-[(R)-(benzylcarbamoyl)(1-phenylacetamido)methyl]-N-[(2R)-1-hydroxy-3-methylbutan-2-yl]-5,5-dimethyl-1,3-thiazolidine-4-carboxamide] was > 4.7 µM; that for `CC(C)C[C@H](CO)NC(=O)[C@@H]1N[C@@H]([C@H](NC(=O)Cc2ccccc2)C(=O)NCc2ccccc2)SC1(C)C` [(2R,4S)-2-[(R)-(benzylcarbamoyl)(1-phenylacetamido)methyl]-N-[(2R)-1-hydroxy-4-methylpentan-2-yl]-5,5-dimethyl-1,3-thiazolidine-4-carboxamide] was > 4.6 µM.
Regarding `C[C@H](CO)NC(=O)[C@@H]1N[C@@H]([C@H](NC(=O)Cc2ccccc2)C(=O)NCc2ccccc2)SC1(C)C` [(2R,4S)-2-[(R)-(benzylcarbamoyl)(1-phenylacetamido)methyl]-N-[(2R)-1-hydroxypropan-2-yl]-5,5-dimethyl-1,3-thiazolidine-4-carboxamide], the IC50 is > 20 µM.
The value for `CC1(C)S[C@H]([C@H](NC(=O)Cc2ccccc2)C(=O)NCc2ccccc2)N[C@H]1C(=O)N[C@H](CO)Cc1ccccc1` [(2R,4S)-2-[(R)-(benzylcarbamoyl)(1-phenylacetamido)methyl]-N-[(2S)-1-hydroxy-3-phenylpropan-2-yl]-5,5-dimethyl-1,3-thiazolidine-4-carboxamide] was > 170 µM; that for `CC1(C)S[C@H]([C@H](NC(=O)Cc2ccccc2)C(=O)NCc2ccccc2)N[C@H]1C(N)=O` [[2R-[2a(R*),4B]]-4-Carbamoyl-5,5-dimethyl-a-[(phenylacetyl)amino]-N-(phenylmethyl)-2-thiazolidineacetamide] was > 230 µM.
